# Results from US12304890B2, “R-type pyridyloxycarboxylic acid, salt and ester derivative thereof, and preparation method therefor, and herbicidal composition and application thereof” (Qingdao Kingagroot Chemical Compound Co., Ltd., priority 2018, dated 2025).
# Tested on: Monocotyledonous and dicotyledonous weed seeds and main crop seeds
# Test: Post-emergence test experiment, other weeds and crops (Table 4, 1000 g a.i./ha)
# Assay type: in vivo
# Settings: 3 weeks in greenhouse, fresh weight inhibition
# Protocol: The above described growth inhibition rate is fresh weight inhibition rate.
# Post-emergence test experiment: Monocotyledonous and dicotyledonous weed seeds and main crop seeds (i. e. wheat, corn, rice, soybean, cotton, oilseed, millet and sorghum.) were put into a plastic pot loaded with soil. Then covered with 0.5-2 cm soil, the seeds were allowed to grow in good greenhouse environment. The test plants were treated at 2-3 leaf stage 2 weeks after sowing. The test compounds of the invention were dissolved with acetone respectively, then added with tween-80, and using 1.5 liters per hectare of an emulsible concentrate of methyl oleate as a synergist, and diluted by certain amount of water to certain concentration. The solution was sprayed to the plants with a sprayer.
smiles,measurement,value
COC(=O)C(Cl)Oc1nc(F)c(Cl)c(N)c1Cl (stereo not drawn) [Compound 2-53],"Activity level (growth inhibition rate), Abutilon theophrasti Medic.",5 (Level 5: the growth inhibition rate is greater than 85%)
same,"Activity level (growth inhibition rate), Galium aparine",5 (Level 5: the growth inhibition rate is greater than 85%)
same,"Activity level (growth inhibition rate), Monochoria Vaginalis",5 (Level 5: the growth inhibition rate is greater than 85%)
CSC(=O)C(Oc1nc(F)c(Cl)c(N)c1Cl)c1ccccc1 (stereo not drawn) [Compound 2-385],"Activity level (growth inhibition rate), Abutilon theophrasti Medic.",5 (Level 5: the growth inhibition rate is greater than 85%)
same,"Activity level (growth inhibition rate), Galium aparine",5 (Level 5: the growth inhibition rate is greater than 85%)
same,"Activity level (growth inhibition rate), Monochoria Vaginalis",5 (Level 5: the growth inhibition rate is greater than 85%)
CCOC(=O)C(Oc1nc(F)c(Cl)c(N)c1Cl)C1CC1 (stereo not drawn) [Compound 2-383],"Activity level (growth inhibition rate), Abutilon theophrasti Medic.",5 (Level 5: the growth inhibition rate is greater than 85%)
same,"Activity level (growth inhibition rate), Galium aparine",5 (Level 5: the growth inhibition rate is greater than 85%)
same,"Activity level (growth inhibition rate), Monochoria Vaginalis",5 (Level 5: the growth inhibition rate is greater than 85%)
COC(=O)C(Oc1nc(F)c(Cl)c(N)c1Cl)[N+](=O)[O-] (stereo not drawn) [Compound 2-50],"Activity level (growth inhibition rate), Abutilon theophrasti Medic.",5 (Level 5: the growth inhibition rate is greater than 85%)
same,"Activity level (growth inhibition rate), Galium aparine",5 (Level 5: the growth inhibition rate is greater than 85%)
same,"Activity level (growth inhibition rate), Monochoria Vaginalis",5 (Level 5: the growth inhibition rate is greater than 85%)
COC(=O)C(Oc1nc(F)c(Cl)c(N)c1Cl)C1CC1 (stereo not drawn) [Compound 2-38],"Activity level (growth inhibition rate), Abutilon theophrasti Medic.",5 (Level 5: the growth inhibition rate is greater than 85%)
same,"Activity level (growth inhibition rate), Galium aparine",5 (Level 5: the growth inhibition rate is greater than 85%)
same,"Activity level (growth inhibition rate), Monochoria Vaginalis",5 (Level 5: the growth inhibition rate is greater than 85%)
COC(=O)C(C=O)Oc1nc(F)c(Cl)c(N)c1Cl (stereo not drawn) [Compound 2-48],"Activity level (growth inhibition rate), Abutilon theophrasti Medic.",5 (Level 5: the growth inhibition rate is greater than 85%)
same,"Activity level (growth inhibition rate), Galium aparine",5 (Level 5: the growth inhibition rate is greater than 85%)
same,"Activity level (growth inhibition rate), Monochoria Vaginalis",5 (Level 5: the growth inhibition rate is greater than 85%)
C=CCNCC=C.CCC(Oc1nc(F)c(Cl)c(N)c1Cl)C(=O)S (stereo not drawn) [Compound 2-12],"Activity level (growth inhibition rate), Abutilon theophrasti Medic.",5 (Level 5: the growth inhibition rate is greater than 85%)
same,"Activity level (growth inhibition rate), Galium aparine",5 (Level 5: the growth inhibition rate is greater than 85%)
same,"Activity level (growth inhibition rate), Monochoria Vaginalis",5 (Level 5: the growth inhibition rate is greater than 85%)
COC(=O)C(CCCl)Oc1nc(F)c(Cl)c(N)c1Cl (stereo not drawn) [Compound 2-42],"Activity level (growth inhibition rate), Abutilon theophrasti Medic.",5 (Level 5: the growth inhibition rate is greater than 85%)
same,"Activity level (growth inhibition rate), Galium aparine",5 (Level 5: the growth inhibition rate is greater than 85%)
same,"Activity level (growth inhibition rate), Monochoria Vaginalis",5 (Level 5: the growth inhibition rate is greater than 85%)
"NC1CCCCCCCCCCC1 [Compound 2-13, cyclododecylamine]","Activity level (growth inhibition rate), Abutilon theophrasti Medic.",5 (Level 5: the growth inhibition rate is greater than 85%)
same,"Activity level (growth inhibition rate), Galium aparine",5 (Level 5: the growth inhibition rate is greater than 85%)
same,"Activity level (growth inhibition rate), Monochoria Vaginalis",5 (Level 5: the growth inhibition rate is greater than 85%)
CN(C)CCCN.Nc1c(Cl)c(F)nc(OC(C(=O)O)c2ccccc2)c1Cl (stereo not drawn) [Compound 2-16],"Activity level (growth inhibition rate), Abutilon theophrasti Medic.",5 (Level 5: the growth inhibition rate is greater than 85%)
same,"Activity level (growth inhibition rate), Galium aparine",5 (Level 5: the growth inhibition rate is greater than 85%)
same,"Activity level (growth inhibition rate), Monochoria Vaginalis",5 (Level 5: the growth inhibition rate is greater than 85%)
COC(=O)C(C#N)Oc1nc(F)c(Cl)c(N)c1Cl (stereo not drawn) [Compound 2-61],"Activity level (growth inhibition rate), Abutilon theophrasti Medic.",5 (Level 5: the growth inhibition rate is greater than 85%)
same,"Activity level (growth inhibition rate), Galium aparine",5 (Level 5: the growth inhibition rate is greater than 85%)
same,"Activity level (growth inhibition rate), Monochoria Vaginalis",5 (Level 5: the growth inhibition rate is greater than 85%)
COC(=O)[C@@H](Oc1nc(F)c(Cl)c(N)c1Cl)c1nc(Cl)cs1 [Compound 2-67],"Activity level (growth inhibition rate), Abutilon theophrasti Medic.",5 (Level 5: the growth inhibition rate is greater than 85%)
same,"Activity level (growth inhibition rate), Galium aparine",5 (Level 5: the growth inhibition rate is greater than 85%)
same,"Activity level (growth inhibition rate), Monochoria Vaginalis",5 (Level 5: the growth inhibition rate is greater than 85%)
NCCNCCN.Nc1c(Cl)c(F)nc(OC(C(=O)O)c2ccccc2)c1Cl (stereo not drawn) [Compound 2-15],"Activity level (growth inhibition rate), Abutilon theophrasti Medic.",5 (Level 5: the growth inhibition rate is greater than 85%)
same,"Activity level (growth inhibition rate), Galium aparine",5 (Level 5: the growth inhibition rate is greater than 85%)
same,"Activity level (growth inhibition rate), Monochoria Vaginalis",5 (Level 5: the growth inhibition rate is greater than 85%)
COC(=O)C(Oc1nc(F)c(Cl)c(N)c1Cl)C(F)F (stereo not drawn) [Compound 2-44],"Activity level (growth inhibition rate), Abutilon theophrasti Medic.",5 (Level 5: the growth inhibition rate is greater than 85%)
same,"Activity level (growth inhibition rate), Galium aparine",5 (Level 5: the growth inhibition rate is greater than 85%)
same,"Activity level (growth inhibition rate), Monochoria Vaginalis",5 (Level 5: the growth inhibition rate is greater than 85%)
"NCc1ccccc1 [Compound 2-9, benzylamine]","Activity level (growth inhibition rate), Abutilon theophrasti Medic.",5 (Level 5: the growth inhibition rate is greater than 85%)
same,"Activity level (growth inhibition rate), Galium aparine",5 (Level 5: the growth inhibition rate is greater than 85%)
same,"Activity level (growth inhibition rate), Monochoria Vaginalis",5 (Level 5: the growth inhibition rate is greater than 85%)
CCC(Oc1nc(F)c(Cl)c(N)c1Cl)C(=O)OC (stereo not drawn) [Compound 2-34],"Activity level (growth inhibition rate), Abutilon theophrasti Medic.",5 (Level 5: the growth inhibition rate is greater than 85%)
same,"Activity level (growth inhibition rate), Galium aparine",5 (Level 5: the growth inhibition rate is greater than 85%)
same,"Activity level (growth inhibition rate), Monochoria Vaginalis",5 (Level 5: the growth inhibition rate is greater than 85%)
CCCC(Oc1nc(F)c(Cl)c(N)c1Cl)C(=O)OC (stereo not drawn) [Compound 2-37],"Activity level (growth inhibition rate), Abutilon theophrasti Medic.",5 (Level 5: the growth inhibition rate is greater than 85%)
same,"Activity level (growth inhibition rate), Galium aparine",5 (Level 5: the growth inhibition rate is greater than 85%)
same,"Activity level (growth inhibition rate), Monochoria Vaginalis",5 (Level 5: the growth inhibition rate is greater than 85%)
COC(=O)C(Br)Oc1nc(F)c(Cl)c(N)c1Cl (stereo not drawn) [Compound 2-52],"Activity level (growth inhibition rate), Abutilon theophrasti Medic.",5 (Level 5: the growth inhibition rate is greater than 85%)
same,"Activity level (growth inhibition rate), Galium aparine",5 (Level 5: the growth inhibition rate is greater than 85%)
same,"Activity level (growth inhibition rate), Monochoria Vaginalis",5 (Level 5: the growth inhibition rate is greater than 85%)
COC(=O)C(Oc1nc(F)c(Cl)c(N)c1Cl)C(=O)OC [Compound 2-47],"Activity level (growth inhibition rate), Abutilon theophrasti Medic.",5 (Level 5: the growth inhibition rate is greater than 85%)
same,"Activity level (growth inhibition rate), Galium aparine",5 (Level 5: the growth inhibition rate is greater than 85%)
same,"Activity level (growth inhibition rate), Monochoria Vaginalis",5 (Level 5: the growth inhibition rate is greater than 85%)
COC(=O)C(CCl)Oc1nc(F)c(Cl)c(N)c1Cl (stereo not drawn) [Compound 2-41],"Activity level (growth inhibition rate), Abutilon theophrasti Medic.",5 (Level 5: the growth inhibition rate is greater than 85%)
same,"Activity level (growth inhibition rate), Galium aparine",5 (Level 5: the growth inhibition rate is greater than 85%)
same,"Activity level (growth inhibition rate), Monochoria Vaginalis",5 (Level 5: the growth inhibition rate is greater than 85%)
COC(=O)C(CF)Oc1nc(F)c(Cl)c(N)c1Cl (stereo not drawn) [Compound 2-43],"Activity level (growth inhibition rate), Abutilon theophrasti Medic.",5 (Level 5: the growth inhibition rate is greater than 85%)
same,"Activity level (growth inhibition rate), Galium aparine",5 (Level 5: the growth inhibition rate is greater than 85%)
same,"Activity level (growth inhibition rate), Monochoria Vaginalis",5 (Level 5: the growth inhibition rate is greater than 85%)
CC(C)N.Nc1c(Cl)c(F)nc(O[C@@H](C(=O)O)c2ccccc2)c1Cl [Compound 2-8],"Activity level (growth inhibition rate), Abutilon theophrasti Medic.",5 (Level 5: the growth inhibition rate is greater than 85%)
same,"Activity level (growth inhibition rate), Galium aparine",5 (Level 5: the growth inhibition rate is greater than 85%)
same,"Activity level (growth inhibition rate), Monochoria Vaginalis",5 (Level 5: the growth inhibition rate is greater than 85%)
CCC(Oc1nc(F)c(Cl)c(N)c1Cl)C(=O)S.NCCCN1CCOCC1 (stereo not drawn) [Compound 2-25],"Activity level (growth inhibition rate), Abutilon theophrasti Medic.",5 (Level 5: the growth inhibition rate is greater than 85%)
same,"Activity level (growth inhibition rate), Galium aparine",5 (Level 5: the growth inhibition rate is greater than 85%)
same,"Activity level (growth inhibition rate), Monochoria Vaginalis",5 (Level 5: the growth inhibition rate is greater than 85%)
COC(=O)C(Cc1ccccc1)Oc1nc(F)c(Cl)c(N)c1Cl (stereo not drawn) [Compound 2-63],"Activity level (growth inhibition rate), Abutilon theophrasti Medic.",5 (Level 5: the growth inhibition rate is greater than 85%)
same,"Activity level (growth inhibition rate), Galium aparine",5 (Level 5: the growth inhibition rate is greater than 85%)
same,"Activity level (growth inhibition rate), Monochoria Vaginalis",5 (Level 5: the growth inhibition rate is greater than 85%)
CSC(=O)C(Oc1nc(F)c(Cl)c(N)c1Cl)C(C)C (stereo not drawn) [Compound 2-36],"Activity level (growth inhibition rate), Abutilon theophrasti Medic.",5 (Level 5: the growth inhibition rate is greater than 85%)
same,"Activity level (growth inhibition rate), Galium aparine",5 (Level 5: the growth inhibition rate is greater than 85%)
same,"Activity level (growth inhibition rate), Monochoria Vaginalis",5 (Level 5: the growth inhibition rate is greater than 85%)
Nc1c(Cl)c(F)nc(O[C@@H](C(=O)[O-])c2ccccc2)c1Cl.[Na+] [Compound 2-1],"Activity level (growth inhibition rate), Abutilon theophrasti Medic.",5 (Level 5: the growth inhibition rate is greater than 85%)
same,"Activity level (growth inhibition rate), Galium aparine",5 (Level 5: the growth inhibition rate is greater than 85%)
same,"Activity level (growth inhibition rate), Monochoria Vaginalis",5 (Level 5: the growth inhibition rate is greater than 85%)
